Test results: patent US5034553A, “Platinum-(II)-diamine complex, method for the preparation of this compound, preparation with an anti-tumour action which contains this compound and also shaped preparations with an anti-tumour action” (Nederlandse Organisatie Voor …, priority 1988, dated 1991)

Legend:
[1] = system: M5076 reticulum cell sarcoma; experiment: Action against M5076 sarcoma, subcutaneous implantation, i.v. treatment; assay type: in vivo, BDF1 mice; settings: for T-C: time to 1 gram tumour
Method: (§1) The complex was also assessed for anti-tumour action against M5076 sarcoma. BDF1 mice, 8 per group, were inoculated intraperitoneally with 10^6 cells of M5076 or subcutaneously with a fragment of a M5076 tumour.
(§2) Mice with an intraperitoneal tumour were treated intraperitoneally starting 13 days after the implantation and this was continued on days 17, 21 and 25, resulting in 4 treatments in all. Mice with an implanted subcutaneous tumour were treated intravenously starting 5 days after the implantation and again on days 9, 13 and 17. Therefore a total of four treatments. Four doses of the complex were tested. A comparison group treated with physiological saline solution and groups treated with cs-platinum are included in this experiment. The mice were assessed daily for survival and the tests were ended after 75 to 80 days. The anti-tumour action was determined on the basis of a) mean survival time of the mice treated with the active substance relative to that of the untreated mice (% T/C) and b) the mean time for subcutaneously implanted tumours to reach a weight of 1 gram in mice treated with active substance relative to the untreated mice (T-C). A compound is regarded as active if this gives a T/C≥125% or is T-C≥13 days.

A2780/DDP = settings: for IC50 ratio: IC50 A2780/DDP versus IC50 A2780
Method: (§3) The cytotoxic action of the platinum complex was evaluated in vitro in a cell line panel consisting of B16-F10 murine melanoma, HCT-116 human colon carcinoma, A2780 human ovary carcinoma and 2 sub-lines of A2780 which are resistant to cis-platinum, i.e. A2780/124 and A2780/PPD respectively. The B16-F10 cell line was kept in a culture of Eagle's Minimum Essential Medium (MEM) with Earle's salts (Gibco) enriched with 2 mmol L-glutamine, 2.06 mmol sodium pyruvate, insulin (0.26 units/ml), penicillin/streptomycin (10 units/ml and 10 mcg/ml respectively), MEM non-essential amino acids (0.6% by weight Gibco) and 10% foetal bovine serum (Hyclone). The HCT-116 cells were cultured in McCoy's 5A medium (modified Gibco) which was supplemented with 2 mmol L-glutamine, 0.12 mmol L-serine, 0.17 mmol asparagine, 1.5 mmol sodium pyruvate, MEM essential amino acids (0.625%, Gibco), MEM non-essential amino acids (0.67%, Gibco), MEM vitamins (0.6%, Gibco), foetal calf serum (10%, Hyclone) and penicillin/streptomycin (10 units/ml and 10 mcg/ml). The A2780 cell lines are cultured in RPMI medium 1640 (Gibco Laboratories) supplemented with foetal calf serum (10% Hyclone), 2 mmol L-glutamine and penicillin/streptomycin. All cell lines are incubated at 37° C. in an incubator with 5% by volume CO2 with a high atmospheric humidity.
(§4) Logarithmically growing cells are harvested by mild trypsinisation and 4,000 cells are added to a microtitre plate with 96 wells (Costar). The plates are incubated for one night in 5% by volume CO2 at 37° C. to allow the cells to adhere to the plate. The cells are then treated with the platinum complex or cis-platinum and incubated for 72 hours. […] Formalin (10% by weight) in a phosphate-buffered physiological saline solution is added and the cells are fixed for 10 minutes. […] The spot is rendered soluble with 0.2 ml 0.1M acetic acid/ethanol (1:1) and the optical densities are determined with the aid of a Dynatech MR 600 microtitre plate reader. […]

[2] = system: HCT-116 human colon carcinoma; experiment: In vitro cytotoxicity, HCT-116; assay type: cell-based; settings: HCT116, 72 hours
Method: (§5) The cytotoxic action of the platinum complex was evaluated in vitro in a cell line panel consisting of B16-F10 murine melanoma, HCT-116 human colon carcinoma, A2780 human ovary carcinoma and 2 sub-lines of A2780 which are resistant to cis-platinum, i.e. A2780/124 and A2780/PPD respectively. The B16-F10 cell line was kept in a culture of Eagle's Minimum Essential Medium (MEM) with Earle's salts (Gibco) enriched with 2 mmol L-glutamine, 2.06 mmol sodium pyruvate, insulin (0.26 units/ml), penicillin/streptomycin (10 units/ml and 10 mcg/ml respectively), MEM non-essential amino acids (0.6% by weight Gibco) and 10% foetal bovine serum (Hyclone). The HCT-116 cells were cultured in McCoy's 5A medium (modified Gibco) which was supplemented with 2 mmol L-glutamine, 0.12 mmol L-serine, 0.17 mmol asparagine, 1.5 mmol sodium pyruvate, MEM essential amino acids (0.625%, Gibco), MEM non-essential amino acids (0.67%, Gibco), MEM vitamins (0.6%, Gibco), foetal calf serum (10%, Hyclone) and penicillin/streptomycin (10 units/ml and 10 mcg/ml). […]
(§6) Logarithmically growing cells are harvested by mild trypsinisation and 4,000 cells are added to a microtitre plate with 96 wells (Costar). […] The spot is rendered soluble with 0.2 ml 0.1M acetic acid/ethanol (1:1) and the optical densities are determined with the aid of a Dynatech MR 600 microtitre plate reader. […]

[3] = system: M5076 reticulum cell sarcoma; experiment: Action against M5076 sarcoma, intraperitoneal implantation, i.p. treatment; assay type: in vivo, BDF1 mice
Method: as §1, §2

[4] = system: B16-F10, HCT-116, A2780, A2780/124 and A2780/DDP; assay type: cell-based, murine and human
Method: as §5, §6

B16-F10 murine melanoma = experiment: In vitro cytotoxicity, B16-F10; assay type: cell-based; settings: B16-F10, 72 hours
Method: as §5, §6

L1210 murine leukaemia = experiment: Activity against L1210 murine leukaemia; assay type: in vivo, CDF1 mice; settings: for % T/C: once on day 1
Method: The platinum complex is investigated for anti-tumour action against L1210 murine leukaemia. CDF1 mice with a weight of 20 g were inoculated intraperitoneally with 10^6 ascitic cells of L1210 leukaemia. The administration of the active substance was started the day following the intraperitoneal implantation of the tumour. The complex is administered in diverse amounts by intraperitoneal injections. Groups of 6 mice are used for each dose and they are treated with a single dose of the complex on the treatment day. A group of ten control mice treated with a physiological saline solution was included in the experiment. The groups treated with cis-platinum are included as positive comparisons. The mice were weighed before the treatment and again on the fifth or sixth day and the average change in weight is taken as a measure of the toxicity. The animals are assessed daily for mortality and the experiments are ended after 30 days. The tumour activity is determined on the basis of % T/C, which is the ratio of mean survival time of the group treated with the active substance relative to the mean survival time of the comparison group treated with a physiological saline solution times 100. The mice treated with physiological saline solution usually have a mean survival time of 7 days. A compound is regarded as active when this gives a % T/C≥125%.

[5] = system: A2780 human ovary carcinoma; experiment: In vitro cytotoxicity, A2780; assay type: cell-based; settings: A2780, 72 hours
Method: as §5, §6

A2780/124 = settings: for IC50 ratio: IC50 A2780/124 versus IC50 A2780
Method: as §3, §4

[6] = B. Rosenberg et al., Nature 222 (1969); cited from earlier work
[7] = 4 mg/kg i.v. on days 5, 9, 13 and 17
[8] = 6 mg/kg i.v. on days 5, 9, 13 and 17
[9] = 8 mg/kg i.v. on days 5, 9, 13 and 17
[10] = 12 mg/kg i.v. on days 5, 9, 13 and 17
[11] = 2.4 mg/kg i.v. on days 5, 9, 13 and 17
[12] = 4.8 mg/kg i.v. on days 5, 9, 13 and 17

SMILES: CC(C)C(CN)(CN)C(C)C.O=C([O-])C(=O)[O-].[Pt+2] [TNO-56, 2,2-Diisopropyl-1,3-diaminopropaneoxalatoplatinum (II)]
- % T/C [1, 7]: 119%
- T-C [1, 7]: 7.8 days
- % T/C [1, 8]: 135%
- T-C [1, 8]: 14.0 days
- % T/C [1, 9]: 140%
- T-C [1, 9]: 21.5 days
- % T/C [1, 10]: 144%
- T-C [1, 10]: 26.8 days
- % T/C and tumour inhibition ([1]; dose dependence, i.v.): dosage-dependent increase in % T/C and tumour inhibition
- IC50 (A2780/DDP; A2780/DDP, 72 hours): 110 µg/mL
- IC50 ratio (A2780/DDP): 0.5
- IC50 [2]: 115 µg/mL
- % T/C ([3]; 4 mg/kg i.p. on days 13, 17, 21 and 25): 139%
- % T/C ([3]; 6 mg/kg i.p. on days 13, 17, 21 and 25): 154%
- % T/C ([3]; 8 mg/kg i.p. on days 13, 17, 21 and 25): 161%
- % T/C ([3]; 12 mg/kg i.p. on days 13, 17, 21 and 25): 193%
- activity ([3]; all doses tested, i.p.): active
- cytotoxic action [4]: cytotoxic for all five cell lines
- IC50 (B16-F10 murine melanoma): 43 µg/mL
- % T/C (L1210 murine leukaemia; 10 mg/kg i.p.): 125%
- % T/C (L1210 murine leukaemia; 20 mg/kg i.p.): 144%
- % T/C (L1210 murine leukaemia; 40 mg/kg i.p.): 88%
- activity (L1210 murine leukaemia; 10 and 20 mg/kg i.p., active if % T/C≥125%): active
- IC50 [5]: 221 µg/mL
- IC50 (A2780/124; A2780/124, 72 hours): 155 µg/mL
- IC50 ratio (A2780/124): 0.7

SMILES: N.N.[Cl][Pt][Cl] [Cis-platinum, cis-diamine-dichloroplatinum, reference compound]
- % T/C [1, 11]: 144%
- T-C [1, 11]: 23.3 days
- % T/C [1, 12]: 141%
- T-C [1, 12]: 31.8 days
- IC50 ratio (A2780/DDP): 12.6
- % T/C ([3]; 2.4 mg/kg i.p. on days 13, 17, 21 and 25): 164%
- % T/C ([3]; 4.8 mg/kg i.p. on days 13, 17, 21 and 25): 166%
- maximum % T/C (L1210 murine leukaemia; 6-10 mg/kg): 138%
- anti-tumour activity [6]: very strong anti-tumour activity
- IC50 ratio (A2780/124): 10
